Patent publication US20250163056A1, “NONMUSCLE MYOSIN II INHIBITORS” (The University of Florida Research Foundation, Inc., priority 2018, published 2025)
pKi: −log10 of the molar value.

How the values were obtained:
Bovine cardiac myosin = Bovine cardiac myosin (Bos taurus (Bovine), UniProt Q9BE39); assay: Cardiac muscle myosin II actin-activated ATPase assay (NADH-coupled); assay type: biochemical; set-up: key to Ratio CMMII:NMII Ki/EC50: NMII-sel: no Ki value for cardiac myosin II could be determined; the compounds had no detectable inhibitory properties versus the cardiac myosin II; details: for pKi: 300 nM cardiac myosin, 10 μM actin, 25° C., read-out: CMMII KI; for Ratio CMMII:NMII Ki/EC50: cardiac myosin II Ki over nonmuscle myosin II EC50
In short: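 NADH-coupled (PK/LDH) assay at 25° C: 300 nM bovine cardiac myosin, 10 μM rabbit F-actin, 1 mM ATP, 1 mM PEP, 220 μM NADH, MOPS pH 7.0, 0.5% DMSO. NADH fluorescence was followed for 30 min; Ki values came from 16-point triplicate data (top 50 uM) fitted to a quadratic one-to-one binding model.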

Rabbit skeletal myosin = assay: Skeletal muscle myosin II actin-activated ATPase assay; assay type: biochemical; details: 20 nM skeletal muscle myosin II; read-out: SKMMII KI
In short: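 NADH-coupled (PK/LDH) actin-activated ATPase at 25 °C with 20 nM rabbit skeletal myosin II, 10 μM F-actin, 1 mM ATP, 1 mM PEP, 220 μM NADH in MOPS pH 7.0, MgCl2, EGTA, BSA, DTT, 0.5% DMSO. NADH fluorescence followed 30 min; inhibitory constants from 16-point triplicate curves (top 50 uM), quadratic one-to-one fit.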

[1] = Photostability, percentage remaining undegraded under illumination or in the dark; details: for Photostability 4 hours: percentage remaining undegraded after 4 hours illumination; for Photostability 24 hours: percentage remaining undegraded after 24 hours illumination; for Photostability Dark (24 h): percentage remaining undegraded in the dark

Bovine cardiac myosin, sequence (Q9BE39 whole entry): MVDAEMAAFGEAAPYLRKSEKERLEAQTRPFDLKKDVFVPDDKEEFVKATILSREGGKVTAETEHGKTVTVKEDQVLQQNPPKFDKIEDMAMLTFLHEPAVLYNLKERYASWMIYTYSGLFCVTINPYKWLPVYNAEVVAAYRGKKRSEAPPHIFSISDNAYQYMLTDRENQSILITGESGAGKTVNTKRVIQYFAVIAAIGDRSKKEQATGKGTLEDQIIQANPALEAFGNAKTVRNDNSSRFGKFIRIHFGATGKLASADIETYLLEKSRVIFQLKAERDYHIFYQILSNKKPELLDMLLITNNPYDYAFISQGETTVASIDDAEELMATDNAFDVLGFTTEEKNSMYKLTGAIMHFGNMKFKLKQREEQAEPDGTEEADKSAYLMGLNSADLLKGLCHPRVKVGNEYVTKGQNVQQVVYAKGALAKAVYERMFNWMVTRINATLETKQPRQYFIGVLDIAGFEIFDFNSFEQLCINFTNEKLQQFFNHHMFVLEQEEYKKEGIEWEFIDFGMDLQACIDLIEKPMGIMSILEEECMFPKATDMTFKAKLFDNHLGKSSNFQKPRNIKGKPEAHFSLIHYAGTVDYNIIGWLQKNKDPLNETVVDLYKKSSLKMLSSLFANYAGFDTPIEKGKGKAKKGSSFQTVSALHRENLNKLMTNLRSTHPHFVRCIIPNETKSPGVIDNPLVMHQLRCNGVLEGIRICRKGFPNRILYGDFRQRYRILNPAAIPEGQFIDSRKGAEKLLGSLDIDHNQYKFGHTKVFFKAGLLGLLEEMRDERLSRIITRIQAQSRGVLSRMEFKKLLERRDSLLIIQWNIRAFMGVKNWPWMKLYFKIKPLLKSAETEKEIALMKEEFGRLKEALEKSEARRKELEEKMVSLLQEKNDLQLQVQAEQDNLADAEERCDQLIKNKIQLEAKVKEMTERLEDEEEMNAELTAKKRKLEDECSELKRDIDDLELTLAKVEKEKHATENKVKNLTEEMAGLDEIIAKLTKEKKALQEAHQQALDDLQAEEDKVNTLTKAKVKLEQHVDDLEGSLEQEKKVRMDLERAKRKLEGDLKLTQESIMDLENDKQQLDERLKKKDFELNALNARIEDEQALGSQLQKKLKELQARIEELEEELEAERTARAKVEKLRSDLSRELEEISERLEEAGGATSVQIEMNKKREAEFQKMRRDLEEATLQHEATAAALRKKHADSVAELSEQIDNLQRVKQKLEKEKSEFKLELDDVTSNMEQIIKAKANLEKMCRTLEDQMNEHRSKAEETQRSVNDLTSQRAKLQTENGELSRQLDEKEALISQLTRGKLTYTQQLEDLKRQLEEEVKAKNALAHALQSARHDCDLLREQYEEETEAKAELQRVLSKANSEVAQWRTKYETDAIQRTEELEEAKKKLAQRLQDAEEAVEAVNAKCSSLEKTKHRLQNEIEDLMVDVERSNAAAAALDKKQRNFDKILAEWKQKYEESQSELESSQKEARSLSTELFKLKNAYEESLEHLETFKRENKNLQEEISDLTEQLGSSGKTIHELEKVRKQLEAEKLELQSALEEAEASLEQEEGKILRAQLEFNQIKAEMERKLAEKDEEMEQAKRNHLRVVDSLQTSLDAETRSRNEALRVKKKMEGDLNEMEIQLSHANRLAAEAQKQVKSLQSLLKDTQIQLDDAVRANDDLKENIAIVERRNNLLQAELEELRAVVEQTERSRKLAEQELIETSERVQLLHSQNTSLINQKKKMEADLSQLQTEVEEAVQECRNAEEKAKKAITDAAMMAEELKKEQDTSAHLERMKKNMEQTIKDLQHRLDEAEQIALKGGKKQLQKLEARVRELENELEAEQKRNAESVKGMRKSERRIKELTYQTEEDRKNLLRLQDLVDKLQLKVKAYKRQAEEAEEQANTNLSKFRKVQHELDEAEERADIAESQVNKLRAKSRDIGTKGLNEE
Bovine cardiac myosin, sequence (P85100 whole entry partner): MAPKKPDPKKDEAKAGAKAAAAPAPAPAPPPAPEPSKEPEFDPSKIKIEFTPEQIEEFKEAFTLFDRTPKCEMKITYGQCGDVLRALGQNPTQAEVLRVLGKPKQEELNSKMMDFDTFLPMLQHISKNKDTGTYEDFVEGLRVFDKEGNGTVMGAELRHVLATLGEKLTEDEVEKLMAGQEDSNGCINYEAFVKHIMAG
Bovine cardiac myosin, sequence (Q3SZE5 whole entry partner): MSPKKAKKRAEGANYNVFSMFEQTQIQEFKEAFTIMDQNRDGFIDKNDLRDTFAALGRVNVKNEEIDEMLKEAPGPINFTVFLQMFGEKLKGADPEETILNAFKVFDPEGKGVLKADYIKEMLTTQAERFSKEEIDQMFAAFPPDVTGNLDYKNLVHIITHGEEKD

| SMILES | pKi (Bovine cardiac myosin) | Ratio CMMII:NMII Ki/EC50 (Bovine cardiac myosin) | pKi (Rabbit skeletal myosin) | Photostability 4 hours [1] [%] | Photostability 24 hours [1] [%] | Photostability Dark (24 h) [1] [%] |
| --- | --- | --- | --- | --- | --- | --- |
| Cc1cc2c(cc1C)C(=O)[C@]1(O)CCN(c3cccs3)C1=N2 [BPN-0026708] | 5.28 | 3.1 | 5.85 | 40.7 | <1 | >99 |
| Cc1cc2c(s1)C(=O)[C@]1(O)CCN(c3cccc(Br)c3)C1=N2 [BPN-0027074] | 4.11 | 3.7 | 4.80 | 95.8 | 93.4 | 94.5 |
| Cc1cc2c(cc1F)C(=O)[C@]1(O)CCN(c3ccccc3)C1=N2 [BPN-0026669] | 4.60 | 4.7 | 5.92 | 87.8 | 11.2 | >99 |
| Cc1ncc(N2CC[C@@]3(O)C(=O)c4cc(F)c(C(F)(F)F)cc4N=C23)s1 [BPN-0026667] | 5.21 | 5.2 | 6.48 | 85.7 | 2.9 | >99 |
| Cc1cc2c(cc1F)C(=O)[C@]1(O)CCN(c3cccs3)C1=N2 [BPN-0026748] | 4.85 | 4.7 | 5.59 | 88.2 | 22.4 | >99 |
| COc1ccc(N2CC[C@@]3(O)C(=O)c4cc(C(F)(F)F)ccc4N=C23)cc1 [BPN-0026393] | 4.96 | 3.2 | 5.77 | 97.9 | 75.0 | >99 |
| CCC1=CC2N=C3N(c4ccc5ncccc5c4)CC[C@@]3(O)C(=O)C2S1 (stereo partly drawn) [BPN-0028625] | 3.52 | 56.6 | 5.05 | 84.4 | 84.6 | 81.8 |
| Cc1cc2c(cc1F)C(=O)[C@]1(O)CCN(c3ccc4ncccc4c3)C1=N2 [BPN-0027197] |  | NMII-sel | 5.62 | >99 | 36.4 | >99 |
| Cc1cc2c(cc1C)C(=O)[C@]1(O)CCN(c3ccc4nc(N)ccc4c3)C1=N2 [BPN-0028899] |  | NMII-sel | 5.42 | 70.8 | 29.7 | 97.8 |
| Cc1ccc2c(c1)C(=O)[C@]1(O)CCN(c3cc4ncccc4s3)C1=N2 [BPN-0027468] |  | NMII-sel | 5.92 | 83.3 | 77.5 | 98.3 |
| Cc1ccc2c(c1)C(=O)[C@]1(O)CCN(c3cnc(C#N)c(Cl)c3)C1=N2 [BPN-0028646] |  | NMII-sel | 5.89 | >99 | 97.1 | 98.2 |
| Cc1ccc2c(c1)C(=O)[C@]1(O)CCN(c3ccn4nccc4c3)C1=N2 [BPN-0027396] | 5.02 | 5.3 | 5.96 | 85.5 | 23.5 | >99 |
| Cc1ccc2c(c1)C(=O)[C@]1(O)CCN(c3ccc(CO)c(Cl)c3)C1=N2 [BPN-0027163] | 4.68 | 5.0 | 5.23 | 95.0 | 44.6 | >99 |

More lines, in order of rising pKi (Rabbit skeletal myosin), values ahead:

| pKi (Bovine cardiac myosin) | Ratio CMMII:NMII Ki/EC50 (Bovine cardiac myosin) | pKi (Rabbit skeletal myosin) | Photostability 4 hours [1] [%] | Photostability 24 hours [1] [%] | Photostability Dark (24 h) [1] [%] | SMILES |
| --- | --- | --- | --- | --- | --- | --- |
| 3.52 | 33.3 | 3.96 | 82.8 | 5.4 | 98.4 | Cc1cc2c(cc1C)C(=O)[C@]1(O)CCN(c3ccc4nc(CN(C)C)ccc4c3)C1=N2 [BPN-0028897] |
| 3.68 | 4.1 | 4.40 | 90.9 | 55.3 | 93.3 | Cc1cc2c(cc1C)C(=O)[C@]1(O)CCN(c3ccc4c(c3)COCCN4)C1=N2 [BPN-0028758] |
| 3.40 | 39.2 | 4.46 | 93.0 | 28.6 | 94.7 | Cc1ccc2c(c1)C(=O)[C@]1(O)CCN(c3cccc(Br)c3)C1=N2 [BPN-0025240] |
| 3.64 | 4.6 | 4.92 | 97.2 | 71.4 | 91.8 | Cc1ccc2c(c1)C(=O)[C@]1(O)CCN(c3ccn4ncnc4c3)C1=N2 [BPN-0027441] |
| 3.70 | 13.3 | 4.96 | 93.2 | 71.0 | 89.4 | Cc1cc(N2CC[C@@]3(O)C(=O)c4cc(C)c(C)cc4N=C23)ccn1 [BPN-0028616] |
| 4.48 | 15.7 | 5.01 | 82.7 | 6.1 | 97.5 | COc1cccc(N2CC[C@@]3(O)C(=O)c4cc(C)c(C)cc4N=C23)c1 [BPN-0026497] |
| 4.64 | 3.1 | 5.23 | 95.8 | 59.3 | 91.6 | O=C1c2c(sc3ccccc23)N=C2N(c3ccccc3)CC[C@@]12O [BPN-0026785] |
|  | NMII-sel | 5.24 | 98.5 | 84.7 | 98.1 | Cc1ccc(N2CC[C@@]3(O)C(=O)c4cc(F)c(C)cc4N=C23)cc1C [BPN-0026607] |
|  | NMII-sel | 5.30 | >99 | 84.9 | >99 | N#Cc1ccc(N2CC[C@@]3(O)C(=O)c4c(sc5c4CCCC5)N=C23)cc1 [BPN-0027236] |
| 4.68 | 3.6 | 5.35 | 98.8 | 96.8 | >99 | Cc1cc2c(s1)C(=O)[C@]1(O)CCN(c3ccc(C)c(Cl)c3)C1=N2 [BPN-0026882] |
| 4.52 | 13.6 | 5.46 | 98.5 | 90.4 | >99 | Cc1ccc2c(c1)C(=O)[C@]1(O)CCN(c3ccc(C#N)c(C)c3)C1=N2 [BPN-0026324] |
| 4.52 | 5.8 | 5.46 | 95.2 | 83.9 | 97.5 | Cc1ccc2c(c1)C(=O)[C@]1(O)CCN(c3ccc4nc(C#N)ccc4c3)C1=N2 [BPN-0027393] |
| 4.52 | 7.1 | 5.57 | 96.7 | 73.1 | 98.4 | Cc1cc2c(cc1C)C(=O)[C@]1(O)CCN(c3cnc(CO)c(Cl)c3)C1=N2 [BPN-0028649] |
| 4.60 | 7.4 | 5.80 | 91.5 | 41.8 | >99 | Cc1ccc2c(c1)C(=O)[C@]1(O)CCN(c3cnc4sccc4c3)C1=N2 [BPN-0027410] |
| 4.89 | 5.2 | 5.92 | 85.2 | 18.0 | 93.5 | Cc1cc2c(cc1F)C(=O)[C@]1(O)CCN(c3ccccc3)C1=N2 [BPN-0026387] |
| 5.08 | 11.2 | 6.00 | 2.8 | 3.1 | 97.2 | Cc1cc2c(cc1C)C(=O)[C@]1(O)CCN(c3ccc4c(c3)OCCO4)C1=N2 [BPN-0028921] |
| 5.04 | 5.7 | 6.05 | 51.9 | 8.2 | 94.7 | Cc1ccc2c(c1)C(=O)[C@]1(O)CCN(c3ccc4ccoc4c3)C1=N2 [BPN-0026285] |
| 4.77 | 6.3 | 6.21 | >99 | 98.7 | >99 | CCc1cc2c(s1)N=C1N(c3ccc(C#N)cc3)CC[C@@]1(O)C2=O [BPN-0027038] |
| 5.10 | 4.0 | 6.28 | 71.1 | 17.8 | 96.8 | O=C1c2cc(Cl)ccc2N=C2N(c3ccc(Cl)cc3)CC[C@@]12O [BPN-0026640] |
